According to the NIST ThermoML archive (doi:10.1016/j.jct.2009.05.005):
Numbers after ± are expanded uncertainties. One block for each compound: values may come before it.

Assay: xn = mol fraction of the nth substance listed
Conditions: 298.15 K, 101 kPa, Liquid, Vibrating tube method

Structure (SMILES): CCO [ethanol] + CC1(C)[C@H]2CC[C@]1(C)C(=O)C2=O
mass density (x2 = 0): 785.022 ± 0.15 kg/m3

Structure (SMILES): CCO [ethanol] + CC1(C)[C@@H]2CC[C@@]1(C)C(=O)C2
mass density (x2 = 0): 785.055 ± 0.15 kg/m3

Structure (SMILES): CCO [ethanol] + CC1(C)[C@H]2CC[C@]1(C)C(=O)C2
mass density (x2 = 0): 785.056 ± 0.15 kg/m3

Structure (SMILES): CCO [ethanol] + CC1(C)[C@H]2CC[C@]1(CS(=O)(=O)O)C(=O)C2
mass density (x2 = 0): 785.024 ± 0.15 kg/m3

Structure (SMILES): CCO [ethanol] + CC1(C)[C@@H]2CC[C@@]1(C)C(=O)C2=O
mass density (x2 = 0): 785.025 ± 0.15 kg/m3

Structure (SMILES): CCO [ethanol] + CC1(C)C2CCC1(CS(=O)(=O)Cl)C(=O)C2
mass density (x2 = 0): 785.033 ± 0.15 kg/m3

Structure (SMILES): CCO [ethanol] + CC1(C)[C@@H]2CC[C@@]1(CS(=O)(=O)O)C(=O)C2
mass density (x2 = 0): 785.026 ± 0.15 kg/m3

Structure (SMILES): CCO [ethanol] + CC1(C)[C@H]2CC[C@]1(CS(=O)(=O)Cl)C(=O)C2
mass density (x2 = 0): 785.035 ± 0.15 kg/m3

Structure (SMILES): CCO [ethanol] + CC1(C)[C@@H]2CC[C@@]1(CS(N)(=O)=O)C(=O)C2
mass density (x2 = 0): 785.013 ± 0.15 kg/m3

More lines, now with the values ahead:

mass density (x1 = 9.665e-05): 785.188 ± 0.15 kg/m3 | mass density (x1 = 0.001502): 787.624 ± 0.15 kg/m3 | mass density (x1 = 0.002013): 788.405 ± 0.15 kg/m3
Structure (SMILES): CC1(C)[C@@H]2CC[C@@]1(CS(N)(=O)=O)C(=O)C2 [(1S)-(+)-10-camphorsulfonamide] + CCO

mass density (x1 = 0.001067): 787.036 ± 0.15 kg/m3 | mass density (x1 = 0.001496): 787.969 ± 0.15 kg/m3 | mass density (x1 = 0.002271): 789.366 ± 0.15 kg/m3
Structure (SMILES): CC1(C)[C@H]2CC[C@]1(CS(=O)(=O)O)C(=O)C2 [(1R)-(-)-10-camphorsulfonic acid] + CCO

mass density (x1 = 0.0006848): 786.329 ± 0.15 kg/m3 | mass density (x1 = 0.001385): 787.654 ± 0.15 kg/m3 | mass density (x1 = 0.002039): 788.885 ± 0.15 kg/m3
Structure (SMILES): CC1(C)[C@H]2CC[C@]1(CS(=O)(=O)Cl)C(=O)C2 [(1R)-(-)-10-camphorsulfonyl chloride] + CCO

mass density (x1 = 0.001389): 786.235 ± 0.15 kg/m3 | mass density (x1 = 0.00209): 786.827 ± 0.15 kg/m3 | mass density (x1 = 0.002792): 787.379 ± 0.15 kg/m3
Structure (SMILES): CC1(C)[C@@H]2CC[C@@]1(C)C(=O)C2=O [(-)-camphorquinone] + CCO

mass density (x1 = 0.0006848): 786.327 ± 0.15 kg/m3 | mass density (x1 = 0.001385): 787.552 ± 0.15 kg/m3 | mass density (x1 = 0.002039): 788.887 ± 0.15 kg/m3
Structure (SMILES): CC1(C)C2CCC1(CS(=O)(=O)Cl)C(=O)C2 (stereo not drawn) [d-10-camphorsulfonyl chloride] + CCO

mass density (x1 = 0.001389): 786.234 ± 0.15 kg/m3 | mass density (x1 = 0.00209): 786.827 ± 0.15 kg/m3 | mass density (x1 = 0.002792): 787.377 ± 0.15 kg/m3
Structure (SMILES): CC1(C)[C@H]2CC[C@]1(C)C(=O)C2=O [(+)-camphorquinone] + CCO

mass density (x1 = 0.001613): 786.229 ± 0.15 kg/m3 | mass density (x1 = 0.003055): 786.828 ± 0.15 kg/m3 | mass density (x1 = 0.009161): 788.869 ± 0.15 kg/m3 | mass density (x1 = 0.01574): 789.42 ± 0.15 kg/m3
Structure (SMILES): CC1(C)[C@H]2CC[C@]1(C)C(=O)C2 [(1S)-1,7,7-trimethylbicyclo[2.2.1]heptan-2-one] + CCO

mass density (x1 = 0.001613): 786.229 ± 0.15 kg/m3 | mass density (x1 = 0.003055): 786.827 ± 0.15 kg/m3 | mass density (x1 = 0.009161): 788.887 ± 0.15 kg/m3 | mass density (x1 = 0.01574): 789.421 ± 0.15 kg/m3
Structure (SMILES): CC1(C)[C@@H]2CC[C@@]1(C)C(=O)C2 [d-camphor] + CCO

mass density (x1 = 0.001067): 787.039 ± 0.15 kg/m3 | mass density (x1 = 0.001496): 787.971 ± 0.15 kg/m3 | mass density (x1 = 0.002271): 789.368 ± 0.15 kg/m3
Structure (SMILES): CC1(C)[C@@H]2CC[C@@]1(CS(=O)(=O)O)C(=O)C2 [(1S)-(+)-10-camphorsulfonic acid] + CCO
